Measurements reported in ChEMBL document CHEMBL2176887, “Chemokine receptor antagonists” (J Med Chem, 2012).
pEC50, pIC50, pKi: −log10 of the molar value. Values belong to the compound of their own block, whether it stands above or below them.

Legend:
[1] = Half life in human; format: ADME, organism-based; conditions: in vivo
[2] = system: Human immunodeficiency virus 1; assay: Antiviral activity against Human immunodeficiency virus 1 clinical isolate; format: functional, organism-based
[3] = octanol/water
Description: Lipophilicity, log P of the compound

[4] = molecular target: T1, C-C chemokine receptor type 1 (Homo sapiens, UniProt P32246)
T1 sequence (P32246 whole entry): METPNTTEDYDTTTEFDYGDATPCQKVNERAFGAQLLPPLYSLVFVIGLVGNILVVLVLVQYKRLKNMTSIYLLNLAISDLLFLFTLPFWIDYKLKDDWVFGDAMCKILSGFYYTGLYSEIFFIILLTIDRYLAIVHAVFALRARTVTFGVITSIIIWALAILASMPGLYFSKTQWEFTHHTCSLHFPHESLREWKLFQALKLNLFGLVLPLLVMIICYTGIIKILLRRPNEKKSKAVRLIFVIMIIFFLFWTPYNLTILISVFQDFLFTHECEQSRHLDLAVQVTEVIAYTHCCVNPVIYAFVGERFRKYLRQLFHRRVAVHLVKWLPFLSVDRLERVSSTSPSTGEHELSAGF

physchem = conditions: octanol/water
Description: Lipophilicity, log P of the compound

[5] = system: Human immunodeficiency virus 1; assay: Antiviral activity against Human immunodeficiency virus 1 ADA; format: functional, organism-based
[6] = molecular target: C-C chemokine receptor type 5 (Homo sapiens, UniProt P51681)
C-C chemokine receptor type 5, sequence (P51681 whole entry): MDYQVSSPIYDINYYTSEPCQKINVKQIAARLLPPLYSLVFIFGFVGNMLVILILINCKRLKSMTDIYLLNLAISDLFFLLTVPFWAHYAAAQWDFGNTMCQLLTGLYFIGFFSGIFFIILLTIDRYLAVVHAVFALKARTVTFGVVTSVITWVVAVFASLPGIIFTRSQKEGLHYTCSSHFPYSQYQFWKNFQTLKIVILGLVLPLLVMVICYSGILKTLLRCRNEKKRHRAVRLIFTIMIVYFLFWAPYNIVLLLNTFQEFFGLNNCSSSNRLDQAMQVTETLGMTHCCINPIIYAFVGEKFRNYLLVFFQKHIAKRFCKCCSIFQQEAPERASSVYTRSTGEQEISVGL

[7] = Half life in dog; format: ADME, organism-based, Canis lupus familiaris; conditions: in vivo
[8] = Oral bioavailability in dog; format: ADME, organism-based, Canis lupus familiaris; conditions: in vivo
[9] = molecular target: T2, C-C chemokine receptor type 3 (Homo sapiens, UniProt P51677)
T2 sequence (P51677 whole entry): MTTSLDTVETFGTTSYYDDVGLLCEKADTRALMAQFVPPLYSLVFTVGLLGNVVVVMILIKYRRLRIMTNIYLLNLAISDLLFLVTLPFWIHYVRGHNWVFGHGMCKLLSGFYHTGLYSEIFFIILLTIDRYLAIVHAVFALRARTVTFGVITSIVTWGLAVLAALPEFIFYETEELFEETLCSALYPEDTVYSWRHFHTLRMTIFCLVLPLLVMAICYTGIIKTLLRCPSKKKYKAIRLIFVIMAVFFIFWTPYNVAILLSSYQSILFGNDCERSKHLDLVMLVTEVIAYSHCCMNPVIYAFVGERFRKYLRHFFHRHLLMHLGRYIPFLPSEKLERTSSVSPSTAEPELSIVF

Thromboxane A2 receptor = molecular target: T3, Thromboxane A2 receptor (Homo sapiens, UniProt P21731)
T3 sequence (P21731 whole entry): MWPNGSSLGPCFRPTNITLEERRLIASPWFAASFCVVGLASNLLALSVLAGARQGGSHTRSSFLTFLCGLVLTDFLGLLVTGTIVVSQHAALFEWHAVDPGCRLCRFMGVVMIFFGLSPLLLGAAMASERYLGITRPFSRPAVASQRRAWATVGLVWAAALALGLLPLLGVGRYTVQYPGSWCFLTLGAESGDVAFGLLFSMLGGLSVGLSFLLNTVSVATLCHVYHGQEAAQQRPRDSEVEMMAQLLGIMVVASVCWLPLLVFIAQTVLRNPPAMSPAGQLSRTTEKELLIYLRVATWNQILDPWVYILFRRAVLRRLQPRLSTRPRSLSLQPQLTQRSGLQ
Description: Binding affinity to TXA2 receptor receptor

[10] = system: Human immunodeficiency virus 1; assay: Antiviral activity against CCR5-tropic HIV1; format: functional

half-life [1]: 35 h | pEC50 [2]: 10.21 | logP [3]: 10.2
Compound: CCCCOCCOc1ccc(-c2ccc3c(c2)/C=C(/C(=O)Nc2ccc([S@@+]([O-])Cc4cncn4CCC)cc2)CCCN3CC(C)C)cc1 [CENICRIVIROC]

pKi [4]: 8.30 | logP (physchem): 1.9
Compound: CC(=O)Nc1ccc(O)cc1OC[C@@](C)(O)CNC1CCN(Cc2ccc(Cl)cc2)CC1 [AZD4818]

logP (physchem): 3.6
Compound: COC[C@@H](c1ccc(C(F)(F)F)cc1)N1CCN(C2(C)CCN(C(=O)c3c(C)ncnc3C)CC2)C[C@@H]1C [VICRIVIROC]

logP (physchem): 4.4
Compound: Cc1nnc(C(C)C)n1[C@@H]1C[C@H]2CC[C@@H](C1)N2CC[C@H](NC(=O)C1CCC(F)(F)CC1)c1ccccc1 [MARAVIROC]

pIC50 [5]: 9.22 | pKi [6]: 8.70
Compound: CCO/N=C(\c1ccc(Br)cc1)C1CCN(C2(C)CCN(C(=O)c3c(C)cc[n+]([O-])c3C)CC2)CC1 [ANCRIVIROC]

pIC50 [6]: 8.51 | logP (physchem): 3.9
Compound: CCO[C@@H]1Cc2cc(C(F)(F)F)ccc2[C@H]1N1CCN(C2(C)CCN(C(=O)c3c(C)ncnc3C)CC2)C[C@@H]1C [INCB-9471]

logP [3]: -0.4
Compound: c1cc(CN2CCCNCCNCCCNCC2)ccc1CN1CCCNCCNCCCNCC1 [PLERIXAFOR]

pIC50 [6]: 9.77 | logP (physchem): 3.1
Compound: CCN(C(=O)Cc1ccc(S(C)(=O)=O)cc1)C1CCN(CC[C@@H](c2cc(F)cc(F)c2)C2CCC(S(C)(=O)=O)CC2)CC1 (some centres not stated) [AZD-5363]

half-life [7]: 2.8 h | bioavailability [8]: 89% | pIC50 [9]: 8.00 | logP (physchem): 2.2
Compound: NC(=O)c1ccc(CNC(=O)NC[C@@H]2CN(Cc3ccc(Cl)c(Cl)c3)CCO2)cc1

logP (physchem): 3.8
Compound: Cc1ccc(S(=O)(=O)NC(=O)N2CCC(N3CCC(Oc4ccc(Cl)c(Cl)c4)CC3)CC2)cc1

pKi (Thromboxane A2 receptor): 7.82
Compound: O=C(O)Cc1ccc2c(c1)/C(=C/Cn1cnc3ccccc31)c1ccccc1CO2

IC90 [10]: 2 nM
Compound: Cc1nnc(C(C)C)n1[C@H]1C[C@H]2CC[C@@H](C1)N2CC[C@H](NC(=O)C1CCC(F)(F)CC1)c1ccccc1 [MARAVIROC]

logP (physchem): 3.8
Compound: CCOc1ccc(-n2c([C@@H](C)N(Cc3cccnc3)C(=O)Cc3ccc(OC(F)(F)F)cc3)nc3ncccc3c2=O)cc1
